The text below walks through data of paper PMC9655001, “Isolation and Identification of Antioxidative Peptide from Goose Liver Hydrolysate to Ameliorate Alcohol-Mediated Oxidative Stress Damage in HHL-5 Hepatocytes” (Molecules, 2022).

One data set relates to pepsin and trypsin. The data set can be described thus: Pepsin-trypsin simulated GI digestion stability. In kind it is in vitro ADME. The note with it: 400 μg/mL peptide; simulated gastric juice (pepsin, pH 3.0) 37 °C 2 h, then simulated intestinal fluid (trypsin, bile salt) 2 h; read-out: retained hepatoprotective activity (ALT, AST, MDA) in HHL-5 model. Here is the method:
The stability of LPLPFP in response to pepsin and trypsin in the simulation of GI digestion in vitro was examined based on Xie et al.. A 1 L ultrapure water solution containing 2 g of NaCl and 3.2 g of pepsin (3000 U/mg protein) with a pH of 3.0 (adjusted with a 6 mol/L HCl solution), was configured as simulated gastric juice. In addition, 0.68 g of potassium dihydrogen phosphate, 7.7 mL of 0.2 mol/L NaOH solution, 1 g of trypsin (285 U/mg protein), and 6 g of bile salt were added and dissolved in 70 mL of ultrapure water with a pH of 7.6 (adjusted with a 0.2 mol/L NaOH solution) and the volume was filled with ultrapure water up to 1 L (as simulated intestinal fluid). The 400 μg/mL of peptide solution at pH 3.0 (adjusted with a 1 mol/L HCl solution) and 5 mL of simulated gastric juice was mixed and shaken at 37 °C for 2 h to simulate gastric digestion, then the mixture was terminated by being heated at 100 °C for 10 min, the pH was adjusted to 7.2 with a 0.2 mol/L NaOH solution, and 5 mL of simulated intestinal juice was added to the solution, and the same conditions were used for simulating intestinal digestion. Finally, the digestive liquid was transferred to the ultrafiltration centrifuge tube (1 kDa) and centrifuged at 4 °C, 8500× g for 20 min; the filtered solutions were desalted by a polar enhanced polymer (PEP) column (500 mg/6 mL) and dried in a vacuum freeze-dryer.

The subject of data set [1] is HHL-5 hepatocytes. The data set is described as follows: MDA level in model of alcohol-mediated HHL-5 hepatocytes damage. Format: cell-based, human. The note with it: alcohol 500 mmol/L, 48 h, no peptide pre-treatment (model group). The procedure:
(§1) Cells were collected with PBS, the activity of ALT (C009-2-1), AST (C0010-2-1), and MDA (A003-1) in cell supernatant and the SOD (A001-3), GSH-Px (A005), CAT (A007-1-1), and ROS (E004-1-1) in the cells were measured using corresponding assay kits (Nanjing Jiancheng Biotechnology Institute, Nanjing, China) according to the manufacturer’s instructions.
MDA: 0.1 mL of sample was mixed with 0.1 mL of reagent one, 3 mL of reagent two, and 1 mL of reagent three in the 10 mL centrifuge tube. Then, the centrifuge tube was centrifuged at 4 °C, 3500× g for 10 min after being heated in a boiling water bath for 40 min. The absorbance value of 200 μL of the supernatant was measured at a 532 nm wavelength by a multifunctional microplate reader.

Data set [2] deals with HHL-5 hepatocytes. The data set is described as follows: Cell viability by Cell Counting Kit-8. Here is the method:
Furthermore, HHL-5 hepatocytes were cultured with different concentrations of GLHP (100 μg/mL, 200 μg/mL, 300 μg/mL, 400 μg/mL, and 500 μg/mL) to evaluate the cytotoxicity of GLHP, as described above. The ability of GLHP to protect HHL-5 hepatocytes was evaluated. […] In the CTRL group, a culture medium supplemented with an equal volume of the PBS was added and incubated for 12 h, and the culture medium was then substituted with an equal volume of the PBS and incubated for 48 h. Finally, the culture media and cells were collected for further analysis.
The Cell Counting Kit-8 (CCK-8, Beijing Solarbio Science and Technology Co., Ltd., Beijing, China) was used to assess the HH-5 cell viability; the testing procedures were performed according to the manufacturer’s protocol. Adherent cells in 96-well culture plates were treated and then incubated with a CCK solution for 2 h; the absorbance was detected at a wavelength of 450 nm with the multifunctional microplate reader.

The test system of data set [3] is HHL-5 hepatocytes. The data set is described as follows: H2O2 level in alcohol-mediated HHL-5 hepatocytes. In kind it is cell-based, human. The note with it: alcohol alone (EtOH model group).
Experimental: The cell suspension was inoculated into 96-well plates (4 × 10^3 per well) and added to the culture medium containing: DMEM-F12 (1:1, HyClone, Logan, UT, USA), 10% FBS (Gibco, New York, NY, USA), 1% P/S (100 U/L), 15 mmol/L of HEPES, and 2.5 mmol/L of L-glutamine, then the plates with cells were placed in a 5% CO2 humidified atmosphere at 37 °C for 24 h. […] Furthermore, HHL-5 hepatocytes were cultured with different concentrations of GLHP (100 μg/mL, 200 μg/mL, 300 μg/mL, 400 μg/mL, and 500 μg/mL) to evaluate the cytotoxicity of GLHP, as described above. The ability of GLHP to protect HHL-5 hepatocytes was evaluated. […] In the CTRL group, a culture medium supplemented with an equal volume of the PBS was added and incubated for 12 h, and the culture medium was then substituted with an equal volume of the PBS and incubated for 48 h. Finally, the culture media and cells were collected for further analysis.
For data set [4], the system named is HHL-5 hepatocytes. The data set can be described thus: SOD activity in alcohol-mediated HHL-5 hepatocytes. Format: cell-based, human. The note with it: alcohol alone (EtOH model group). Here is the method: as §1
SOD: 20 μL of sample was mixed with 20 μL enzyme working liquid and 200 μL of substrate application solution. Then, miscible liquids were performed at 37 °C for 20 min. The absorbance values of the miscible liquids were measured at a 450 nm wavelength by a multifunctional microplate reader.

Data set [5] has as its system HHL-5 hepatocytes. The data set can be described thus: AST level in model of alcohol-mediated HHL-5 hepatocytes damage. Format: cell-based, human. The note with it: alcohol 500 mmol/L, 48 h, no peptide pre-treatment (model group). Here is the method: as §1
ALT and AST: 5 μL of sample was mixed with 20μL of ALT/AST matrix solution and the reaction was performed at 37 °C for 30 min. Then, 20 μL of 2, 4-dinitrophenylhydrazine solution was added and the reaction was performed at 37 °C for 20 min. Finally, 200 μL of sodium hydroxide solution (0.4 mol/L) was added and the reaction was performed at room temperature for 15 min. The absorbance value was measured at a 510 nm wavelength by a multifunctional microplate reader.

The test system of data set [6] is HHL-5 hepatocytes. The data set can be described thus: GSH-Px activity in alcohol-mediated HHL-5 hepatocytes. In kind it is cell-based, human. The note with it: alcohol alone (EtOH model group). Here is the method:
as §1
GSH-Px: 0.2 mL of sample was mixed with 0.2 mL of […] and performed at 37 °C for 5 min. Then, 0.1 mL of reagent one was added and performed at 37 °C for 5 min. Subsequently, the miscible liquids were centrifuged at 4 °C, 3500× g for 10 min. One mL of supernatant was mixed with 1 mL of reagent three, 0.25 mL of reagent four, and 0.05 mL of reagent five and performed at room temperature for 15 min. The absorbance value was measured at a 412 nm wavelength by a multifunctional microplate reader.

Data set [7] has as its system HHL-5 hepatocytes. The data set can be described thus: CAT activity in alcohol-mediated HHL-5 hepatocytes. In kind it is cell-based, human. The note with it: alcohol alone (EtOH model group). Here is the method:
as §1
CAT: 0.05 mL of sample was mixed with 1.0 mL reagent one, 0.1 mL reagent two and performed at 37 °C for 1 min. Then, 1.0 mL reagent three and 0.1 mL reagent four were mixed with the miscible liquids. The absorbance value was measured at 405 nm wavelength by a multifunctional microplate reader.

Data set [8] concerns HHL-5 hepatocytes. The data set can be described thus: ROS level in alcohol-mediated HHL-5 hepatocytes (DCFH-DA). Format: cell-based, human. The note with it: alcohol alone (EtOH model group). The procedure:
as §1
ROS: A DCFH-DA probe was added directly to the serum-free medium: DCFH-DA was generally diluted with a serum-free medium at a final concentration of 10 µM at 1:1000. After removing the culture medium, an appropriate volume of diluted DCFH-DA was added. The volume added should be sufficient to cover the cells. Usually, no less than 1 mL of diluted DCFH-DA is added to one well of a 6-well plate. A sample of cells without a probe and with a medium only was set as negative for the control. Positive control: take a sample of cells with a probe and add reactive oxygen species to induce the cells. The cells were incubated at 37 °C for 20 min […] (mixed upside down every 5 min to make full contact between the probe and cell). […] In general, an obvious green fluorescence can be observed in the positive control cells after 30 min of stimulation. […] It can also be detected according to FITC fluorescence detection conditions. The results were expressed as fluorescence values.

The conditions of data set [9]: cited from earlier work. The source says: Typically, oligopeptides containing 2 to 10 amino acid residues are considered to have a higher antioxidant activity compared with their parent protein [14]. Free radicals, linked to oxidative stress, are highly reactive with other molecules, including vital DNA and proteins, the destruction of which can damage or kill cells. Among the many free radicals, the ∙OH radical is commonly considered as one of the most harmful highly react ...

A short description of a further data set: Fe^2+ chelating ability. The note with it: 1 mg/mL, ferrozine, 10 min room temperature, absorbance 562 nm, mean ± SD. The procedure: (§2) The antioxidant activity of the target peptides was evaluated by detecting the hydroxyl radical scavenging activity (∙OH), DPPH radical scavenging activity, and Fe^2+ chelating ability; the method was performed according to Zhu et al. with some modifications.
Measurement of the Fe^2+ chelating ability. Briefly, 1 mL of LPLPFP was mixed with 0.05 mL of FeCl2 (2 mmol/L) and 0.2 mL of ferrozine (5 mmol/L). The mixture was vortexed and kept at room temperature for 10 min prior to the measurement of the absorbance at 562 nm (As). The control (Ac) contained everything except using deionized water instead of LPLPFP. The chelating ability was calculated according to the equation Fe^2+chelating ability (%) = (Ac − As) ÷ Ac × 100% where As and Ac represent the absorbance of the sample and the control groups. BHT was used as a positive control.

Data set [10] in a line: ∙OH radical scavenging activity. The note with it: 1 mg/mL, 37 °C 60 min, absorbance 536 nm, mean ± SD. The procedure:
as §2
Measurement of the ∙OH radical scavenging activity. The sample group was a mixture of 0.6 mL of 1, 10-phenanthroline monohydrate (5 mmol/L) and 0.4 mL of phosphate buffer (0.2 M, pH 7.4), and then 0.6 mL of LPLPFP (1 mg/mL), 0.6 mL of EDTA (15 mmol/L), and 0.6 mL of FeSO4 (5 mmol/L) were mixed thoroughly. After mixing, 0.8 mL of H2O2 (0.1%) was added and incubated at 37 °C for 60 min. Afterward, the mixture absorbance was measured at 536 nm with the multifunctional microplate reader. The control group contained the same solutions as the sample group, except deionized water was used instead of the sample. The blank group contained the same solution as the control group, except deionized water was used instead of H2O2. The results were determined according to the equation. hydroxyl radical scavenging activity (%) = (As − Ac) ÷ (Ab − Ac) × 100% where As, Ac, and Ab represent the absorbance of the sample and the control and blank groups, respectively. BHT was used as a positive control.

Data set [11] is described as follows: DPPH radical scavenging activity. The note with it: 1 mg/mL, 0.2 mmol/L DPPH, 30 min room temperature, absorbance 517 nm, mean ± SD. The procedure:
as §2
Measurement of the DPPH radical scavenging activity. One mL of the LPLPFP (dissolved in deionized water) was mixed with 1 mL of 0.2 mmol/L DPPH (in 95% ethanol) as the sample group; 1 mL of deionized water was mixed with 1 mL of ethanol (95%) as the blank group; and 1 mL of 0.2 mmol/L DPPH was mixed with 1 mL of ethanol (95%) as the control group. The mixture was agitated using a vortex and incubated for 30 min at room temperature, protected from light, and then the absorbance at 517 nm was measured. The scavenging activity of LPLPFP and BHT was calculated using the following equation:DPPH radical scavenging activity (%) = 1 − [ (As − Ac) ÷ (Ab − Ac)] × 100% where As, Ac, and Ab represent the absorbance of the sample, the control, and the blank groups, respectively. BHT was used as a positive control.

Read-outs that look alike come from different tables or passages of the source. Marks after values point to notes of the source that are not given here. Ends that are not written are not given here. Peptide text beside a SMILES is read from it.

Consider `CC(C)C[C@H](NC(=O)[C@@H]1CCCN1C(=O)[C@@H](N)CC(C)C)C(=O)N1CCC[C@H]1C(=O)N[C@@H](Cc1ccccc1)C(=O)N1CCC[C@H]1C(=O)O` [LPLPFP, Leu-Pro-Leu-Pro-Phe-Pro] (H-LPLPFP-OH), for which the “resistance to pepsin-trypsin simulated GI digestion” value with pepsin and trypsin is given as “strong resistance”.
As for `CCO` [alcohol, anhydrous ethanol], the “level of MDA in the EtOH group” value with HHL-5 hepatocytes [1] stood at 2.436e+07 ± 2.85e+06 µM. In addition, the “viability of HHL-5 hepatocytes” value in the data set with HHL-5 hepatocytes [2] (500 mmol/L alcohol, 48 h, CCK-8, mean ± SD, at least triplicates) is listed as “approximately 49.28 ± 5.12%”. For the same compound, in the data set with HHL-5 hepatocytes [2] (48 h incubation, CCK-8), the “median lethal dose of alcohol for HHL-5 hepatocytes (LD50)” value turned out to be 500 mmol/L. Besides, the “level of H2O2 after stimulation with alcohol” value in the data set with HHL-5 hepatocytes [3] came out at 43860 ± 3570 µM. In addition, the “level of SOD after administration of alcohol” value in the data set with HHL-5 hepatocytes [4] worked out at 31.28 ± 4.53 U/mg prot. In addition, in the data set with HHL-5 hepatocytes [5], the “level of AST in the EtOH group” value worked out at 376.57 ± 32.83 U/L. For the same compound, the “level of GSH-Px after administration of alcohol” value in the data set on HHL-5 hepatocytes [6] was found to be 49.26 ± 4.82 U/mg prot. In addition, the “level of CAT after administration of alcohol” value in the data set with HHL-5 hepatocytes [7] was 24.87 ± 3.28 U/mg prot. Also, in the data set with HHL-5 hepatocytes [8], the “level of ROS after stimulation with alcohol” value was determined as 95.23 ± 6.54 U/mg prot.
For Gly-Lys-Phe-Asn-Val, the “Fe^2+ chelating ability (source: scavenging rate of Fe^2+)” value in data set [9] (1 mg/mL ref 16) is 63.20%.
Turning to NPPKFD, the “Fe^2+ chelating ability (source: scavenging rate of Fe^2+)” value in [9] (1 mg/mL ref 3) is given as 66.92%.
Turning to `Cc1cc(C(C)(C)C)c(O)c(C(C)(C)C)c1` [BHT], the “Fe^2+ Chelating Ability (%)” value in “Fe^2+ chelating ability” is given as 14.39 ± 2.46 ^b %. Besides, the “∙OH Radical Scavenging Activity (%)” value in [10] is on record as 79.38 ± 2.03 ^b %. In data set [11], the “DPPH Radical Scavenging Activity (%)” value was 90.56 ± 1.73 ^b %.
